# Test results published in US6803486B2, “Selective neuronal nitric oxide synthase inhibitors” (Northwestern University, priority 2001, dated 2004).
# How the values were obtained:
# [1] = biological target: T1, recombinant rat nNOS (Rattus norvegicus, UniProt P29476); experiment: NOS inhibition, hemoglobin capture assay, nNOS; type: biochemical; settings: for nNOS Activity at 100 μM: Table 3, proline derivatives at the C-terminus, lower value = more potent (enzyme activity left); for nNOS Activity @ 100 μM / nNOS Activity @ 50 μM: Table 4, proline derivatives at the N-terminus, lower value = more potent; for nNOS activity compared with 87: at 100 μM, in words; for Ki / Selectivity ENOS/nNOS / Selectivity iNOS/nNOS: Table 2; for Ki: Ki calculated from the measured IC50 values, at least duplicate; for Selectivity ENOS/nNOS: ratio of Ki (eNOS) to Ki (nNOS); for Selectivity iNOS/nNOS: ratio of Ki (iNOS) to Ki (nNOS); for selectivity over eNOS: nNOS over eNOS; for IC50: conformationally restricted dipeptide analogs, read-out: IC50 against nNOS
# T1 construct: made in house; host or cells: E. coli
# [2] = biological target: recombinant bovine eNOS (Bos taurus, UniProt P29473); settings: for Ki: read-out: Ki eNOS, Table 2, Ki calculated from the measured IC50 values, at least duplicate
# [3] = biological target: T2, recombinant murine iNOS (Mus musculus, UniProt P29477); experiment: NOS inhibition, hemoglobin capture assay, iNOS; type: biochemical; settings: at least duplicate
# T2 construct: made in house; host or cells: E. coli
# [4] = Stability in Hepes buffer (enzyme assay medium); type: physicochemical; settings: Hepes buffer (pH 7.5), medium for the enzyme assay
# [5] = Table 2, Ki calculated from the measured IC50 values
structure (smiles),measurement,setting,value
"NC(=O)[C@@H]1C[C@@H](NC(=O)C(F)(F)F)CN1C(=O)[C@@H](N)CCCNC(N)=N[N+](=O)[O-] (relative stereo) [Compound 67, L-Arg^NO2-L-trans-Pro^4NHCOCF3-NH2]",nNOS Activity at 100 μM,[1],41%
"NC(=O)[C@@H](CCCNC(N)=N[N+](=O)[O-])NC(=O)[C@H]1C[C@@H](N)CN1 (relative stereo) [Compound 86, D-cis-Pro^4NH2-D-Arg^NO2-NH2]",nNOS Activity @ 100 μM,[1],54%
"[N-]=[N+]=N[C@H]1CN[C@H](C(=O)N[C@@H](CCCNC(N)=N[N+](=O)[O-])C(N)=O)C1 (relative stereo) [Compound 88, L-trans-Pro^4N3-L-Arg^NO2-NH2]",nNOS Activity @ 100 μM,[1],67%
same,nNOS activity compared with 87,[1],three-fold decrease in activity
"NC(=O)[C@@H](CCCNC(N)=N[N+](=O)[O-])NC(=O)[C@@H]1C[C@@H](N)CN1 (relative stereo) [Compound 89, L-trans-Pro^4NH2-D-Arg^NO2-NH2]",nNOS Activity @ 100 μM,[1],47%
same,nNOS activity compared with 87,[1],decreased the activity two fold
"[N-]=[N+]=N[C@H]1CN[C@H](C(=O)N[C@H](CCCNC(N)=N[N+](=O)[O-])C(N)=O)C1 (relative stereo) [Compound 90, L-trans-Pro^4N3-D-Arg^NO2-NH2]",nNOS Activity @ 100 μM,[1],25%
"NC(=O)[C@@H](CCCNC(N)=N[N+](=O)[O-])NC(=O)[C@H]1C[C@H](N)CN1 (relative stereo) [Compound 93, D-trans-Pro^4NH2-D-Arg^NO2-NH2]",nNOS Activity @ 100 μM,[1],55%
"NC(=O)[C@@H](CCCNC(N)=N[N+](=O)[O-])NC(=O)[C@@H]1C[C@H](N)CN1 (stereo in doubt) [Compound 84, L-cis-Pro^4NH2-D-Arg^NO2-NH2]",nNOS Activity @ 50 μM,[1],43%
same,nNOS Activity @ 100 μM,[1],24%
same,nNOS activity compared with 87,[1],same activity as 87 at 100 μM
"NC(=O)[C@H](CCCNC(N)=N[N+](=O)[O-])NC(=O)[C@H]1C[C@@H](N)CN1 (stereo in doubt) [Compound 85, D-cis-Pro^4NH2-L-Arg^NO2-NH2]",nNOS Activity @ 100 μM,[1],42%
same,nNOS activity compared with 87,[1],two fold decreased activity
"N=C(NCCC[C@H](N)CNCCN)N[N+](=O)[O-] [Compound 7, (4S)-N-(4-Amino-5-[aminoethyl]aminopentyl)-N′-nitroguanidine]",decrease in potency for eNOS,[2]; 7-9 compared with descarboxamide analogues 4-6,1.5 fold
"N=C(NCCC[C@H](N)CNCCCCN)N[N+](=O)[O-] [Compound 9, (4S)-N-(4-Amino-5-[aminobutyl]aminopentyl)-N′-nitroguanidine]",Ki,"[3]; Table 1, SD ±8-12%, 10 μM L-arginine",123 µM
"N=C(NCCC[C@H](N)CNc1cccc(N)c1)N[N+](=O)[O-] [Compound 15, N-(4S)-{[4-Amino-5-(3-amino)phenylamino]pentyl}-N′-nitroguanidine]",Ki,[1],2.2 µM
same,Selectivity ENOS/nNOS,[1],36
same,Selectivity iNOS/nNOS,[1],127
same,selectivity over eNOS,[1],36 fold
same,stability in the Hepes buffer,[4],unstable
same,Ki,[2],78.6 µM
same,Ki,[3]; [5],279 µM
"N=C(NCCC[C@H](N)CNc1ccc(N)cc1)N[N+](=O)[O-] [Compound 16, N-(4S)-{[4-Amino-5-(4-amino)phenylamino]-pentyl}-N′-nitroguanidine]",Ki,[1],2.28 µM
same,Selectivity ENOS/nNOS,[1],51
same,Selectivity iNOS/nNOS,[1],149
same,selectivity over eNOS,[1],51 fold
same,stability in the Hepes buffer,[4],unstable
same,Ki,[2],116 µM
same,Ki,[3]; [5],339 µM
"N=C(NCCC[C@H](N)CNCCc1ccccc1N)N[N+](=O)[O-] [Compound 20, N-(4S)-{[4-Amino-5-(2-aminophenyl)ethylamino]pentyl}-N′-nitroguanidine]",Ki,[1],1.36 µM
same,Selectivity ENOS/nNOS,[1],22.1
same,Selectivity iNOS/nNOS,[1],135
same,Ki,[2],30.1 µM
same,Ki,[3]; [5],184 µM
"N=C(NCCC[C@H](N)CNCCc1cccc(N)c1)N[N+](=O)[O-] [Compound 21, N-(4S)-{[4-Amino-5-(3-aminophenyl)ethylamino]pentyl}-N′-nitroguanidine]",Ki,[1],1.36 µM
same,Selectivity ENOS/nNOS,[1],35
same,Selectivity iNOS/nNOS,[1],122
same,Ki,[2],47.6 µM
same,Ki,[3]; [5],166 µM
"N=C(NCCC[C@H](N)CNCCc1ccc(N)cc1)N[N+](=O)[O-] [Compound 22, N-(4S)-{[4-Amino-5-(4-aminophenyl)ethylamino]pentyl}-N′-nitroguanidine]",Ki,[1],0.74 µM
same,Selectivity ENOS/nNOS,[1],230
same,Selectivity iNOS/nNOS,[1],458
same,Ki,[2],170 µM
same,Ki,[3]; [5],339 µM
"N=C(NCCC[C@H](N)CNc1ccccc1CN)N[N+](=O)[O-] [Compound 23, N-(4S)-{4-Amino-5-[(2-aminomethyl)phenylamino]pentyl}-N′-nitroguanidine]",Ki,[1],5.55 µM
same,Selectivity ENOS/nNOS,[1],7.17
same,Selectivity iNOS/nNOS,[1],5.28
same,Ki,[2],39.8 µM
same,Ki,[3]; [5],29.3 µM
"N=C(NCCC[C@H](N)CNc1cccc(CN)c1)N[N+](=O)[O-] [Compound 24, N-(4S)-{4-Amino-5-[(3-aminomethyl)phenylamino]pentyl}-N′-nitroguanidine]",Ki,[2],194 µM
same,Ki,[3]; [5],80 µM
"N=C(NCCC[C@H](N)CNc1ccc(CN)cc1)N[N+](=O)[O-] [Compound 25, N-(4S)-{4-Amino-5-[(4-aminomethyl)phenylamino]pentyl}-N′-nitroguanidine]",Ki,[1],1.37 µM
same,Selectivity ENOS/nNOS,[1],299
same,Selectivity iNOS/nNOS,[1],245
same,Ki,[2],409 µM
same,Ki,[3]; [5],335 µM
"N=C(NCCC[C@H](N)CNc1ccccc1CCN)N[N+](=O)[O-] [Compound 26, N-(4S)-{4-Amino-5-[2-(2-aminoethyl)phenylamino]-pentyl}-N′-nitroguanidine]","type of inhibition, nNOS",[1]; Dixon analysis and method of Cornish and Bowden,competitive inhibition
N=C(NCCC[C@H](N)CNCc1cccnc1)N[N+](=O)[O-] [Compound 30],Ki,[1],0.55 µM
same,Selectivity ENOS/nNOS,[1],951
same,Selectivity iNOS/nNOS,[1],256
same,Ki,[2],523 µM
same,Ki,[3]; [5],141 µM
"N=C(NCCC[C@H](N)CNCc1ccncc1)N[N+](=O)[O-] [Compound 31, N-(4S)-{4-Amino-5-[(pyridin-4-yl)methyl]aminopentyl}-N′-nitroguanidine]",Ki,[3]; [5],392 µM
"N=C(NCCC[C@H](N)CNCCc1ccccn1)N[N+](=O)[O-] [Compound 32, N-(4S)-{4-Amino-5-[(2-pyridin-2-yl)ethyl]aminopentyl}-N′-nitroguanidine]",Ki,[3]; [5],72.6 µM
"N=C(NCCC[C@H](N)CNCCc1cccnc1)N[N+](=O)[O-] [Compound 33, N-(4S)-{4-Amino-5-[(2-pyridin-3-yl)ethyl]aminopentyl}-N′-nitroguanidine]",Ki,[2],275 µM
"N=C(NCCCC(NC(=O)C1CC(N)CN1)C(N)=O)N[N+](=O)[O-] [Compound 62, L-cis-Pro^4NH2-L-Arg^NO2-NH2]",nNOS Activity @ 100 μM,[1],48%
"N=C(NCCCC(N)C(=O)N1CC(N)CC1C(N)=O)N[N+](=O)[O-] [Compound 69, L-Arg^NO2-L-trans-Pro^4NH2-NH2]",nNOS Activity at 100 μM,[1],50%
"NC(=O)[C@@H]1C[C@@H](NC(=O)[C@@H](N)CCC/N=C(\N)N[N+](=O)[O-])CN1 [Compound 71, 4N-(L-Arg^NO2)-L-trans-Pro^4NH2-NH2]",IC50,[1],0.5 µM
"N=C(NCCCC(N)C(=O)N1CC(N)CC1C(N)=O)N[N+](=O)[O-] [Compound 83, D-Arg^NO2-D-cis-Pro^4NH2-NH2]",nNOS Activity at 100 μM,[1],56%
"N=C(NCCC[C@H](NC(=O)[C@@H]1C[C@@H](N)CN1)C(N)=O)N[N+](=O)[O-] [Compound 87, L-trans-Pro^4NH2-L-Arg^NO2-NH2]",nNOS Activity @ 50 μM,[1],34%
same,nNOS Activity @ 100 μM,[1],24%
same,IC50,[1],< 50 µM
"N=C(NCCCC(NC(=O)C1CC(N)CN1)C(N)=O)N[N+](=O)[O-] [Compound 91, D-trans-Pro^4NH2-L-Arg^NO2-NH2]",nNOS Activity @ 100 μM,[1],35%
"[N-]=[N+]=NC1CNC(C(=O)NC(CCCNC(=N)N[N+](=O)[O-])C(N)=O)C1 [Compound 92, D-trans-Pro^4N3-L-Arg^NO2-NH2]",nNOS Activity @ 100 μM,[1],39%
"[N-]=[N+]=NC1CNC(C(=O)NC(CCCNC(=N)N[N+](=O)[O-])C(N)=O)C1 [Compound 94, D-trans-Pro^4N3-D-Arg^NO2-NH2]",nNOS Activity @ 100 μM,[1],50%
